Reference: patent publication EP0563386A1, “ANTICANCER COMPOSITION AND COMPOUND” (NIPPON SHINYAKU COMPANY, LIMITED, priority 1990, dated 1992)

Legend:
MDCK cells = assay: Inhibition of uptake of 5-FU in MDCK cells (Test Example 4); format: cell-based; conditions: Canis lupus familiaris, 3H-5FU uptake versus control, harvest time (1, 3 or 5 hours) not given; for inhibition at 100 µM: 10⁻⁴ M; for inhibition at 10 µM: 10⁻⁵ M; for inhibition at 1 µM: 10⁻⁶ M
Method: In the assay of inhibitory activity against the 5-FU uptake of MDCK cells, the anticancer adjuvant activity of the test compound can be estimated based on the inhibitory effect on the uptake of a known anticancer drug.
The inhibitory effect of the compound of this invention on the uptake of 5-FU in MDCK cells was investigated. MDCK cells were seeded on a 24-well culture plate. When the cells became confluent, the test compound (10⁻⁶ - 10⁻⁴ M) and 3H-5FU ([…]) were simultaneously added to the medium and 1, 3 and 5 hours later, cells were harvested to determine the amount of 3H-5FU taken up with a liquid scintillation counter. The percent inhibition to control was calculated.

[1] = Anticancer effect in unspecified in vitro test systems (Test Example 6); conditions: in vitro test systems which the inventor used, not described
Colon 26 tumor cells [2] = assay: Colon 26 percent tumor inhibition, alone and combined with 5-FU derivatives (Test Example 3); format: in vivo, BALB/c mice; conditions: for % Inhibition, Combination: test compound 10 mg/kg orally once daily concurrently with 5-FU derivatives (90 mg/kg total); for % Inhibition, Single drug: test compound 10 mg/kg orally once daily, 5-FU derivatives 30 mg/kg each (90 mg/kg total) orally
Method: The additive effect of 5-FU derivative and the compound of this invention was tested in terms of percent tumor inhibition. Colon 26 tumor cells were transplanted subcutaneously to groups of 8 BALB/c mice and the treatment was instituted when the tumor volume amounted to about 50-100 mm³. Each of the test com pound was suspended in 0.5% methylcellulose and admin istered orally in a dose of 10 mg/kg once daily for 14 days in (1) and for 21 days in (2) and (3). As 5-FU derivatives Mifurol™, Furtulon™ and Sunfural™ were used, and all the drugs were administered orally in a dose of 30mg/kg, or 90 mg/kg as total dose of three drugs. The combination group received these 5-FU derivatives concurrently with the test drug. The single drug group received each test compound alone orally.

Colon 26 tumor cells [3] = assay: Colon 26 life-prolonging effect / survival (Test Example 5); format: in vivo, BALB/c mice; conditions: 10 mg/kg orally once daily; for life-prolonging effect: Test (2): groups of six, eighty percent of control group died on day 63, Fig. 4
Method: Furthermore, in the assay of growth inhibitory activity against Colon 26, the life-prolonging effect can be evaluated from the mortality of animals during a period of 4 to 6 weeks after administration.
• (1) Colon 26 tumor cells were transplanted subcutane ously in groups of six BALB/c mice and the treatment was instituted when the tumor volume amounted to about 100 - 200 mm³. The test drug suspended in 0.5% methyl cellulose was administered orally in a dose of 10 mg/kg once daily during the test period. All animals in the control group (no test drug was contained at all) died on day 34 and all animals given 5-FU derivative died on day 40, whereas none of the animals given the compound of this invention (compound No. 169) died even after day 40. The life-prolonging effect of the compound of this invention is clear. • (2) As in the above (1), Colon 26 tumor cells were transplanted subcutaneously in groups of six BALB/c mice and treatment was instituted when the tumor volume amounted to about 100-200 mm³. The test drug suspended in 0.5% methylcellulose was administered orally in a dose of 10 mg/kg once daily during the test period.
The open circle stands for control, the open square for the F-5U derivative group and the closed square for the group given the compound of this invention. The survival rate (%) is plotted on the vertical axis and the number of days after drug administration on the horizontal axis.
The open circle stands for the control group, the open square for Compound No. 175 group, the closed circle for Compound No. 210 group, the open triangle for Compound No. 213 group and the closed square for Compound 219 group. The survival rate (%) is plotted on the vertical axis and the number of days after drug administration on the horizontal axis.

Compound | inhibition at 100 µM (MDCK cells) | inhibition at 10 µM (MDCK cells) | inhibition at 1 µM (MDCK cells) | also measured
Nc1nc(N)nc(-c2ccc(Br)c(Br)c2)n1 [Compound No. 405, 2,4-Diamino-6-(3,4-dibromophenyl)-1,3,5-triazine] | 62% | 59% |  | 
Nc1nc(N)nc(-c2cc(Br)ccc2F)n1 [compound 215, 2,4-Diamino-6-(5-bromo-2-fluorophenyl)-1,3,5-triazine] |  |  |  | anticancer effect in vitro [1]: strong anticancer effect
Nc1nc(N)nc(-c2cc([N+](=O)[O-])ccc2Cl)n1 [compound 374, 2,4-Diamino-6-(2-chloro-5-nitrophenyl)-1,3,5-triazine] |  |  |  | anticancer effect in vitro [1]: strong anticancer effect
Nc1nc(N)nc(-c2ccc(OCc3ccccc3)cc2)n1 [Compound No. 345, 2,4-Diamino-6-(4-benzyloxyphenyl)-1,3,5-triazine] | 70% | 63% | 63% | 
Nc1nc(N)nc(-c2ccccc2)n1 [compound 100, 2,4-Diamino-6-phenyl-1,3,5-triazine] |  |  |  | anticancer effect in vitro [1]: strong anticancer effect
CC(=O)c1cccc(-c2nc(N)nc(N)n2)c1 [Compound No. 347, 2,4-Diamino-6-(3-acetylphenyl)-1,3,5-triazine] | 49% | 61% |  | 
Cc1ccc(Cl)cc1-c1nc(N)nc(N)n1 [compound 380, 2,4-Diamino-6-(5-chloro-2-methylphenyl)-1,3,5-triazine] |  |  |  | anticancer effect in vitro [1]: strong anticancer effect
COc1ccc(-c2nc(N)nc(NC(=O)c3cccnc3)n2)cc1OC [Compound No. 264, 2-Amino-4-nicotinoylamino-6-(3,4-dimethoxyphenyl)-1,3,5-triazine] | 56% | 62% | 89% | 
Nc1nc(N)nc(-c2ccccc2NCc2ccccc2)n1 [Compound No. 356, 2,4-Diamino-6-(2-benzylaminophenyl)-1,3,5-triazine] | 51% | 73% | 91% | 
Nc1nc(N)nc(-c2cc(Cl)ccc2Cl)n1 [Compound No. 169, 2,4-Diamino-6-(2,5-dichlorophenyl)-1,3,5-triazine] |  |  |  | % Inhibition, Combination (Colon 26 tumor cells [2]; Test (1): 14 days): 54.6%; % Inhibition, Single drug (Colon 26 tumor cells [2]; Test (1): 14 days): 18.0%; % Inhibition, Combination (Colon 26 tumor cells [2]; Test (2): 21 days): 84.1%; % Inhibition, Single drug (Colon 26 tumor cells [2]; Test (2): 21 days): 11.6%; % Inhibition, Combination (Colon 26 tumor cells [2]; Test (3): 21 days): 49.9%; % Inhibition, Single drug (Colon 26 tumor cells [2]; Test (3): 21 days): 10.7%; survival: day on which the animals died (Colon 26 tumor cells [3]; Test (1): groups of six, control group all died on day 34, Fig. 3): > 40 days
COCCOc1ccc(Cl)cc1-c1nc(N)nc(N)n1 [Compound No. 221, 2,4-Diamino-6-[5-chloro-2-(2-methoxyethoxy)phenyl]-1,3,5-triazine] |  |  |  | % Inhibition, Combination (Colon 26 tumor cells [2]; Test (3): 21 days): 76.5%; % Inhibition, Single drug (Colon 26 tumor cells [2]; Test (3): 21 days): 18.1%
Nc1nc(N)nc(-c2ccc(Cl)c(Cl)c2)n1 [Compound No. 156, 2,4-Diamino-6-(3,4-dichlorophenyl)-1,3,5-triazine] | 56% | 73% | 85% | 
Nc1nc(N)nc(-c2ccc(Br)c(Cl)c2)n1 [Compound No. 219, 2,4-Diamino-6-(4-bromo-3-chlorophenyl)-1,3,5-triazine] | 60% | 69% | 86% | % Inhibition, Combination (Colon 26 tumor cells [2]; Test (2): 21 days): 75.5%; % Inhibition, Single drug (Colon 26 tumor cells [2]; Test (2): 21 days): 10.0%; life-prolonging effect (Colon 26 tumor cells [3]): definite life-prolonging effect
COc1ccccc1-c1nc(N)nc(N)n1 [compound 255, 2,4-Diamino-6-(2-methoxyphenyl)-1,3,5-triazine] |  |  |  | anticancer effect in vitro [1]: strong anticancer effect
CCONc1nc(N)nc(-c2cc(Cl)ccc2Cl)n1 [compound 183, 2-Amino-4-ethoxyamino-6-(2,5-dichlorophenyl)-1,3,5-triazine] |  |  |  | anticancer effect in vitro [1]: strong anticancer effect
O=C(Nc1nc(NC(=O)c2ccccc2)nc(-c2ccccc2)n1)c1ccccc1 [Compound No. 104, 2,4-Dibenzoylamino-6-phenyl-1,3,5-triazine] | 44% | 50% | 60% | 
Nc1cccc(-c2nc(N)nc(N)n2)c1 [Compound No. 352, 2,4-Diamino-6-(3-aminophenyl)-1,3,5-triazine] | 64% | 69% |  | 
COc1ccc(-c2nc(N)nc(N)n2)cc1OC [Compound No. 259, 2,4-Diamino-6-(3,4-dimethoxyphenyl)-1,3,5-triazine] | 62% | 66% | 77% | % Inhibition, Combination (Colon 26 tumor cells [2]; Test (1): 14 days): 45.6%; % Inhibition, Single drug (Colon 26 tumor cells [2]; Test (1): 14 days): 9.2%
Nc1nc(N)nc(-c2cccc(Cl)c2)n1 [Compound No. 159, 2,4-Diamino-6-(3-chlorophenyl)-1,3,5-triazine] |  |  |  | % Inhibition, Combination (Colon 26 tumor cells [2]; Test (1): 14 days): 50.9%; % Inhibition, Single drug (Colon 26 tumor cells [2]; Test (1): 14 days): 2.0%
Nc1nc(N)nc(-c2ccc(Cl)cc2Br)n1 [Compound No. 210, 2,4-Diamino-6-(2-bromo-4-chlorophenyl)-1,3,5-triazine] |  |  |  | % Inhibition, Combination (Colon 26 tumor cells [2]; Test (2): 21 days): 86.0%; life-prolonging effect (Colon 26 tumor cells [3]): definite life-prolonging effect
Nc1nc(NC(=O)c2cccnc2)nc(-c2cc(Cl)ccc2Cl)n1 [Compound No. 262, 2-Amino-4-nicotinoylamino-6-(2,5-dichlorophenyl)-1,3,5-triazine] | 46% | 58% |  | % Inhibition, Combination (Colon 26 tumor cells [2]; Test (3): 21 days): 48.8%; % Inhibition, Single drug (Colon 26 tumor cells [2]; Test (3): 21 days): 19.2%
O=C(Nc1nc(NC(=O)c2cccnc2)nc(-c2ccccc2)n1)c1cccnc1 [Compound No. 102, 2,4-Dinicotinoylamino-6-phenyl-1,3,5-triazine] | 62% | 59% | 86% | 
Nc1nc(NC(=O)c2ccccc2)nc(-c2ccccc2)n1 [Compound No. 103, 2-Amino-4-benzoylamino-6-phenyl-1,3,5-triazine] | 50% | 58% |  | 
Nc1nc(N)nc(-c2cc(Br)ccc2Cl)n1 [Compound No. 213, 2,4-Diamino-6-(5-bromo-2-chlorophenyl)-1,3,5-triazine] |  |  |  | % Inhibition, Combination (Colon 26 tumor cells [2]; Test (2): 21 days): 70.4%; life-prolonging effect (Colon 26 tumor cells [3]): definite life-prolonging effect
Nc1nc(N)[n+]([O-])c(-c2cc(Cl)ccc2Cl)n1 [compound 1001, 2,4-Diamino-6-(2,5-dichlorophenyl)-1,3,5-triazine N-oxide] |  |  |  | anticancer effect in vitro [1]: strong anticancer effect
Nc1nc(NC(=O)c2cccnc2)nc(-c2ccc(Cl)c(Cl)c2)n1 [Compound No. 263, 2-Amino-4-nicotinoylamino-6-(3,4-dichlorophenyl)-1,3,5-triazine] |  |  |  | % Inhibition, Combination (Colon 26 tumor cells [2]; Test (1): 14 days): 47.9%; % Inhibition, Single drug (Colon 26 tumor cells [2]; Test (1): 14 days): 7.0%; % Inhibition, Combination (Colon 26 tumor cells [2]; Test (3): 21 days): 52.0%; % Inhibition, Single drug (Colon 26 tumor cells [2]; Test (3): 21 days): 8.9%
